# Reference: PubChem BioAssay (NCI)
#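 Method: 48-hour compound exposure of cells in 96-well plates, five concentrations, linear interpolation of endpoints. Abbreviation: GI50, concentration required for 50% inhibition of growth. Definition used: TGI = concentration required for complete inhibition of growth.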
# Tests used:
# Test in all cases: growth of human tumour cells (NCI), 48 h
# A498 renal = system: A498 renal
# OVCAR-5 ovarian = system: OVCAR-5 ovarian
# RXF 393 renal = system: RXF 393 renal
# U251 CNS = system: U251 CNS
# 786-0 renal = system: 786-0 renal
# COLO 205 colon = system: COLO 205 colon
# HCT-15 colon = system: HCT-15 colon
# UACC-257 melanoma = system: UACC-257 melanoma
# NCI-H23 lung = system: NCI-H23 lung
# SF-539 CNS = system: SF-539 CNS
# PC-3 prostate = system: PC-3 prostate
# MALME-3M melanoma = system: MALME-3M melanoma
# HCC-2998 colon = system: HCC-2998 colon
# NCI/ADR-RES ovarian = system: NCI/ADR-RES ovarian
# ACHN renal = system: ACHN renal
# CAKI-1 renal = system: CAKI-1 renal
# HL-60(TB) leukemia = system: HL-60(TB) leukemia
# HCT-116 colon = system: HCT-116 colon
# IGROV1 ovarian = system: IGROV1 ovarian
# RPMI-8226 leukemia = system: RPMI-8226 leukemia
# SK-MEL-28 melanoma = system: SK-MEL-28 melanoma
# DU-145 prostate = system: DU-145 prostate
# K-562 leukemia = system: K-562 leukemia
# SNB-19 CNS = system: SNB-19 CNS
# OVCAR-3 ovarian = system: OVCAR-3 ovarian
# NCI-H226 lung = system: NCI-H226 lung
# MDA-N = system: MDA-N
# SK-OV-3 ovarian = system: SK-OV-3 ovarian
# SN12C renal = system: SN12C renal
# MCF7 breast = system: MCF7 breast
# HOP-92 NSCLC = system: HOP-92 NSCLC
# MDA-MB-435 = system: MDA-MB-435
# TK-10 renal = system: TK-10 renal
# UACC-62 melanoma = system: UACC-62 melanoma
# UO-31 renal = system: UO-31 renal
# SW-620 colon = system: SW-620 colon
# MDA-MB-231 breast = system: MDA-MB-231 breast
# HT29 colon = system: HT29 colon
# HOP-62 NSCLC = system: HOP-62 NSCLC
# LOX IMVI melanoma = system: LOX IMVI melanoma
# M14 melanoma = system: M14 melanoma
# T-47D breast = system: T-47D breast
# NCI-H460 lung = system: NCI-H460 lung
# MOLT-4 leukemia = system: MOLT-4 leukemia
# CCRF-CEM leukemia = system: CCRF-CEM leukemia
# HS 578T breast = system: HS 578T breast
# SF-268 CNS = system: SF-268 CNS
# NCI-H522 lung = system: NCI-H522 lung
# SK-MEL-2 melanoma = system: SK-MEL-2 melanoma
# SNB-75 CNS = system: SNB-75 CNS
# A549 NSCLC = system: A549 NSCLC
# SR leukemia = system: SR leukemia
# OVCAR-4 ovarian = system: OVCAR-4 ovarian
# SF-295 CNS = system: SF-295 CNS
# SK-MEL-5 melanoma = system: SK-MEL-5 melanoma
# KM12 colon = system: KM12 colon
# BT-549 breast = system: BT-549 breast
# OVCAR-8 ovarian = system: OVCAR-8 ovarian
# KM20L2 colon = system: KM20L2 colon
# DMS 273 small cell lung = system: DMS 273 small cell lung
# XF 498 CNS = system: XF 498 CNS
# DMS 114 small cell lung = system: DMS 114 small cell lung
# LXFL 529 NSCLC = system: LXFL 529 NSCLC
# M19-MEL melanoma = system: M19-MEL melanoma
# EKVX NSCLC = system: EKVX NSCLC
structure (smiles),measurement,setting,value
Cc1c(F)c(N)c2c(=O)cc(-c3ccc(NC(=O)CN(C)C)c(F)c3)oc2c1F,TGI,A498 renal,5.77 µM
same,TGI,OVCAR-5 ovarian,> 100 µM
same,TGI,RXF 393 renal,> 100 µM
same,TGI,U251 CNS,> 81.1 µM
same,TGI,786-0 renal,> 100 µM
same,TGI,COLO 205 colon,> 100 µM
same,TGI,HCT-15 colon,> 100 µM
same,TGI,UACC-257 melanoma,> 100 µM
same,TGI,NCI-H23 lung,> 100 µM
same,TGI,SF-539 CNS,> 100 µM
same,TGI,PC-3 prostate,> 100 µM
same,TGI,MALME-3M melanoma,> 100 µM
same,TGI,HCC-2998 colon,> 100 µM
same,TGI,NCI/ADR-RES ovarian,> 100 µM
same,TGI,ACHN renal,> 100 µM
same,TGI,CAKI-1 renal,> 66.1 µM
same,TGI,HL-60(TB) leukemia,46.4 µM
same,TGI,HCT-116 colon,> 100 µM
same,TGI,IGROV1 ovarian,> 100 µM
same,TGI,RPMI-8226 leukemia,> 83 µM
same,TGI,SK-MEL-28 melanoma,> 100 µM
same,TGI,DU-145 prostate,> 100 µM
same,TGI,K-562 leukemia,98.9 µM
same,TGI,SNB-19 CNS,> 100 µM
same,TGI,OVCAR-3 ovarian,> 60.9 µM
same,TGI,NCI-H226 lung,> 100 µM
same,TGI,MDA-N,> 100 µM
same,TGI,SK-OV-3 ovarian,> 100 µM
same,TGI,SN12C renal,> 100 µM
same,TGI,MCF7 breast,> 66.1 µM
same,GI50,HOP-92 NSCLC,> 36.4 µM
same,TGI,HOP-92 NSCLC,99.4 µM
same,TGI,MDA-MB-435,> 100 µM
same,TGI,TK-10 renal,> 100 µM
same,TGI,UACC-62 melanoma,> 94.2 µM
same,TGI,UO-31 renal,> 100 µM
same,TGI,SW-620 colon,> 74.6 µM
same,TGI,MDA-MB-231 breast,> 83.7 µM
same,TGI,HT29 colon,> 100 µM
same,GI50,HOP-62 NSCLC,> 100 µM
same,TGI,HOP-62 NSCLC,> 100 µM
same,TGI,LOX IMVI melanoma,> 100 µM
same,TGI,M14 melanoma,> 100 µM
same,TGI,T-47D breast,> 100 µM
same,TGI,NCI-H460 lung,> 100 µM
same,TGI,MOLT-4 leukemia,> 71.8 µM
same,TGI,CCRF-CEM leukemia,> 76.6 µM
same,TGI,HS 578T breast,> 100 µM
same,TGI,SF-268 CNS,> 100 µM
same,TGI,NCI-H522 lung,> 100 µM
same,TGI,SK-MEL-2 melanoma,> 100 µM
same,GI50,SNB-75 CNS,32.9 µM
same,TGI,SNB-75 CNS,> 100 µM
same,TGI,A549 NSCLC,> 100 µM
same,TGI,SR leukemia,61 µM
same,TGI,OVCAR-4 ovarian,> 92.5 µM
same,TGI,SF-295 CNS,> 100 µM
same,TGI,SK-MEL-5 melanoma,> 100 µM
same,TGI,KM12 colon,> 100 µM
same,TGI,BT-549 breast,> 100 µM
same,TGI,OVCAR-8 ovarian,> 100 µM
COC(=O)C(CCC#N)(CCC#N)C(=O)OC,TGI,U251 CNS,> 100 µM
same,TGI,786-0 renal,> 100 µM
same,TGI,KM20L2 colon,> 100 µM
same,TGI,COLO 205 colon,> 100 µM
same,TGI,DMS 273 small cell lung,> 100 µM
same,TGI,HCT-15 colon,> 100 µM
same,TGI,UACC-257 melanoma,> 100 µM
same,TGI,NCI-H23 lung,> 100 µM
same,TGI,XF 498 CNS,> 100 µM
same,TGI,SF-539 CNS,> 100 µM
same,TGI,MALME-3M melanoma,> 100 µM
same,TGI,HCC-2998 colon,> 100 µM
same,TGI,ACHN renal,> 100 µM
same,TGI,HL-60(TB) leukemia,> 100 µM
same,TGI,HCT-116 colon,> 100 µM
same,TGI,IGROV1 ovarian,> 100 µM
same,TGI,RPMI-8226 leukemia,> 100 µM
same,TGI,SK-MEL-28 melanoma,> 100 µM
same,TGI,K-562 leukemia,> 100 µM
same,TGI,SNB-19 CNS,> 100 µM
same,TGI,OVCAR-3 ovarian,> 100 µM
same,TGI,NCI-H226 lung,> 100 µM
same,TGI,SK-OV-3 ovarian,> 100 µM
same,TGI,SN12C renal,> 100 µM
same,TGI,DMS 114 small cell lung,> 100 µM
same,TGI,UACC-62 melanoma,> 100 µM
same,TGI,LXFL 529 NSCLC,> 100 µM
same,TGI,UO-31 renal,> 100 µM
same,TGI,SW-620 colon,> 100 µM
same,TGI,HT29 colon,> 100 µM
same,TGI,HOP-62 NSCLC,> 100 µM
same,TGI,LOX IMVI melanoma,> 100 µM
same,TGI,M14 melanoma,> 100 µM
same,TGI,NCI-H460 lung,> 100 µM
same,TGI,M19-MEL melanoma,> 100 µM
same,TGI,MOLT-4 leukemia,> 100 µM
same,TGI,CCRF-CEM leukemia,> 100 µM
same,TGI,SF-268 CNS,> 100 µM
same,TGI,NCI-H522 lung,> 100 µM
same,TGI,A549 NSCLC,> 100 µM
same,TGI,SR leukemia,> 100 µM
same,TGI,SF-295 CNS,> 100 µM
same,TGI,SK-MEL-5 melanoma,> 100 µM
same,TGI,EKVX NSCLC,> 100 µM
same,TGI,KM12 colon,> 100 µM
same,TGI,OVCAR-8 ovarian,> 100 µM
